Source: PMC12298351, “Novel 3,19-(N-Phenyl-3-(4-fluorophenyl)-pyrazole) Acetal of Andrographolide Promotes Cell Cycle Arrest and Apoptosis in MDA-MB-231 Breast Cancer Cells” (Pharmaceuticals, 2025)

Legend:
MDA-MB-468 = settings: MDA-MB-468, Breast
[1] = DPPH radical scavenging assay; settings: 25 µM test compound, 0.1 mM DPPH, acetonitrile, 30 min
Procedure, shortened: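 Compounds at 25 µM in acetonitrile mixed 1:2 with 0.1 mM DPPH in acetonitrile, kept 30 min in the dark at room temperature. Absorbance read at 517 nm; % scavenging = (Ac − As)/Ac × 100, Ac being DPPH blank. Ascorbic acid positive control.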

CAKI-1 = settings: CAKI-1, Renal
RXF 393 = settings: RXF 393, Renal
HCT-15 = settings: HCT-15, Colon
DU-145 = settings: DU-145, Prostate
SK-MEL-28 = settings: SK-MEL-28, Melanoma
MCF7 = settings: MCF7, Breast
786-0 = settings: 786-0, Renal
SK-MEL-5 = settings: SK-MEL-5, Melanoma
HCT-116 = type: cell-based; settings: HCT-116, Colon
OVCAR-5 = settings: OVCAR-5, Ovarian
HCC-2998 = settings: HCC-2998, Colon
SF-295 = settings: SF-295, CNS
SF-268 = settings: SF-268, CNS
SK-OV-3 = settings: SK-OV-3, Ovarian
OVCAR-3 = settings: OVCAR-3, Ovarian
MOLT-4 = settings: MOLT-4, Leukemia
RPMI-8226 = settings: RPMI-8226, Leukemia
MDA-MB-435 = settings: MDA-MB-435, Melanoma
KM12 = settings: KM12, Colon
SF-539 = settings: SF-539, CNS
[2] = read-out: 50% lethal concentration (LC50)

Work on `C=C1CCC2C3(C)COC(c4cn(-c5ccccc5)nc4-c4cccc(Cl)c4)OC3CCC2(C)C1CC=C1C(=O)OCC1O` (centres unmarked) [1d] yielded a GI50 (MDA-MB-468) of 1.74 µM, a Total growth inhibition (TGI) (MDA-MB-468) of 3.31 µM and a CC50 (MDA-MB-468; [2]) of 6.3 µM. It also gave a GI50 (ACHN; Renal) of 1.64 µM, a Total growth inhibition (TGI) (ACHN; Renal) of 3.01 µM and a CC50 (ACHN; read-out: 50% lethal concentration (LC50), Renal) of 5.52 µM. The “% DPPH radical scavenging activity” value [1] was 59.32%, the GI50 (CAKI-1) was 1.32 µM and the Total growth inhibition (TGI) (CAKI-1) was 2.66 µM. For the same compound, the CC50 (CAKI-1; [2]) was 5.39 µM, the GI50 (RXF 393) was 1.05 µM and the Total growth inhibition (TGI) (RXF 393) was 2.31 µM. For the same compound, the CC50 (RXF 393; [2]) was 5.07 µM, the GI50 (HCT-15) was 1.58 µM and the Total growth inhibition (TGI) (HCT-15) was 3.47 µM. For the same compound, the CC50 (HCT-15; [2]) was 7.64 µM, the GI50 (DU-145) was 1.88 µM and the Total growth inhibition (TGI) (DU-145) was 3.98 µM. It also gave a CC50 (DU-145; [2]) of 8.43 µM, a GI50 (SK-MEL-28) of 1.8 µM and a Total growth inhibition (TGI) (SK-MEL-28) of 3.37 µM. It also gave a CC50 (SK-MEL-28; [2]) of 6.33 µM, a GI50 (MCF7) of 1.48 µM and a Total growth inhibition (TGI) (MCF7) of 66.8 µM. The CC50 (MCF7; [2]) was > 100 µM, the Total growth inhibition (TGI) (NCI-H226; NCI-H226, Non-Small Cell Lung) was 3.37 µM and the GI50 (NCI-H226; NCI-H226, Non-Small-Cell Lung) was 1.76 µM. For the same compound, the CC50 (NCI-H226; read-out: 50% lethal concentration (LC50), NCI-H226, Non-Small Cell Lung) was 6.46 µM, the GI50 (786-0) was 2.31 µM and the Total growth inhibition (TGI) (786-0) was 6.1 µM. The CC50 (786-0; [2]) was 83.4 µM, the GI50 (SK-MEL-5) was 1.63 µM and the Total growth inhibition (TGI) (SK-MEL-5) was 3 µM. It also gave a CC50 (SK-MEL-5; [2]) of 5.53 µM, a GI50 (HCT-116) of 1.04 µM and a Total growth inhibition (TGI) (HCT-116) of 3.48 µM. It also gave a CC50 (HCT-116; [2]) of 45.2 µM, a GI50 (OVCAR-5) of 1.78 µM and a Total growth inhibition (TGI) (OVCAR-5) of 4.21 µM. For the same compound, the CC50 (OVCAR-5; [2]) was 7.73 µM, the GI50 (HCC-2998) was 1.81 µM and the Total growth inhibition (TGI) (HCC-2998) was 3.37 µM. It also gave a Total growth inhibition (TGI) (NCI-H460; NCI-H460, Non-Small Cell Lung) of 3.34 µM, a GI50 (NCI-H460; NCI-H460, Non-Small-Cell Lung) of 1.68 µM and a CC50 (NCI-H460; read-out: 50% lethal concentration (LC50), NCI-H460, Non-Small Cell Lung) of 6.66 µM. The GI50 (MDA-MB-231; MDA-MB-231, Breast) was 1.49 µM, the Total growth inhibition (TGI) (MDA-MB-231; MDA-MB-231/ATCC, Breast) was 2.99 µM and the CC50 (MDA-MB-231; read-out: 50% lethal concentration (LC50), MDA-MB-231/ATCC, Breast) was 5.97 µM. It also gave a GI50 (SF-295) of 1.42 µM, a Total growth inhibition (TGI) (SF-295) of 2.75 µM and a CC50 (SF-295; [2]) of 5.36 µM. For the same compound, the GI50 (SF-268) was 1.6 µM, the Total growth inhibition (TGI) (SF-268) was 3.34 µM and the CC50 (SF-268; [2]) was 6.94 µM. The GI50 (SK-OV-3) was 5.86 µM, the Total growth inhibition (TGI) (SK-OV-3) was 33.4 µM and the CC50 (SK-OV-3; [2]) was > 100 µM. The GI50 (OVCAR-3) was 1.6 µM, the Total growth inhibition (TGI) (OVCAR-3) was 3.09 µM and the CC50 (OVCAR-3; [2]) was 5.95 µM. For the same compound, the GI50 (MOLT-4) was 1.14 µM, the Total growth inhibition (TGI) (MOLT-4) was 3.82 µM and the CC50 (MOLT-4; [2]) was > 100 µM. The GI50 (RPMI-8226) was 1.38 µM, the Total growth inhibition (TGI) (RPMI-8226) was > 100 µM and the CC50 (RPMI-8226; [2]) was > 100 µM. It also gave a GI50 (MDA-MB-435) of 1.56 µM, a Total growth inhibition (TGI) (MDA-MB-435) of 3.19 µM and a CC50 (MDA-MB-435; [2]) of 6.49 µM. It also gave a GI50 (KM12) of 1.67 µM, a Total growth inhibition (TGI) (KM12) of 3.32 µM and a GI50 (SF-539) of 1.63 µM. The Total growth inhibition (TGI) (SF-539) was 3.02 µM, the CC50 (SF-539; [2]) was 5.57 µM and the Total growth inhibition (TGI) (EKVX; Non-Small Cell Lung) was 4.95 µM. The GI50 (EKVX; Non-Small-Cell Lung) was 2.21 µM and the CC50 (EKVX; read-out: 50% lethal concentration (LC50), Non-Small Cell Lung) was > 100 µM.
